One series can be described thus: Caco-2 cell permeability. Type of series: in vitro ADME. Particulars: human, Caco-2, 10.0 µM, no p-gp inhibitor. The protocol:
Compounds permeability was evaluated using Caco-2 cell lines. HBSS buffer was used as transfer buffer. Appropriate dosing and receiver solutions were applied to the donor and receiver chambers to initiate the transport assay in apical to basolateral (A to B) or basolateral to apical (B to A) directions. Compounds were tested at 10.0 µM in the absence of p-gp inhibitor bidirectionally in duplicates. After incubation at 37°C for 90 mins, donor and receiver samples were analyzed by LC-MS/MS. The intestinal absorption potential was assessed using Papp value and efflux ratio.
In general terms: Passage across Caco-2 layers is used to estimate intestinal permeability.

A further series concerns IFNa pSTAT1. As to the kind of experiment: Phosphorylation of STAT1 inhibition in HMC3 cells by Jess. Format: cell-based. The note with it: Homo sapiens; HMC3 microglia cells, 50ng/mL hINFα 1 hour, Jess western; read-out: Jess_HMC3 IC50 (IFNa pSTAT1). The protocol:
Seeding HMC3 cells into 12-well plate and incubate overnight. Pre-stimulation with recombinant human IFNα (Sino biological, H08Y), treat cells with compound with different concentration for 1hr. After compound treatment, stimulate HMC3 cells with 50ng/mL hINFα for another 1 hour (for CCF-STTG1 cells IFNα induction time is 30 mins). And then wash cells with DPBS once gently and lyse cells with pre-cooled RIPA buffer (Sigma, R0278-500ML) for 30min on ice to harvest cells. Centrifuge cell lysate for 20 mins at 12000rpm with freezer centrifuge (Thermo Scientific, Heraeus Fresco 21) to extract protein. Prepare samples with Jess Simple Wes kit (SM-WO04) and then run western blot on Jess simple western system (Protein simple, JS-4631). Collect data and analyzed with GraphPad Prism.

Series [1] can be described thus: Microsomal metabolic stability assay. Type of series: in vitro ADME. Particulars: human, liver microsomes, 0.5 mg/mL microsomal protein, 1 µM test article, 2 mM NADPH; for half-life at 1 µM: read-out: Human LM T1/2; for microsomal CLint at 1 µM: read-out: Human LM Clint. A digest of the protocol: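 Test or control compound (1 µM) incubated with microsomes (0.5 mg/mL protein) in 100 mM potassium phosphate pH 7.4, 1.0 mM EDTA at 37°C, started with NADPH regenerating system (2 mM NADPH). Sampled at 0, 5, 15, 30, 45 min, acetonitrile-quenched, LC/MS/MS. T1/2 from ln %remaining vs time slope; CLint = 0.693/T1/2 per mg protein/mL.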

A further series addresses T1, TYK2 (Homo sapiens, UniProt P29597).
T1 construct: purchased Carna Biosciences
T1 sequence (P29597 897-1176 limits assumed): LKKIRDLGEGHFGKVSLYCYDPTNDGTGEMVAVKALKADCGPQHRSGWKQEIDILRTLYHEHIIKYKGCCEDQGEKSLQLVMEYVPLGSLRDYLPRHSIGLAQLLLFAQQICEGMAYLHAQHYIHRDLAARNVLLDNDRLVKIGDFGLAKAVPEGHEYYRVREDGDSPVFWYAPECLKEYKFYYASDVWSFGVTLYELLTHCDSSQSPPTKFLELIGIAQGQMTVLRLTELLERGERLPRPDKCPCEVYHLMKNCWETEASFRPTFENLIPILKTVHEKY
As to the kind of experiment: TYK2 kinase activity, microfluidic assay (Caliper EZ Reader II, FAM labeled peptide substrate). Type of series: biochemical. The note with it: TYK2 20 nM, 1 mM ATP. As for the experimental part:
(§1) Testing for JAK1, JAK2 and TYK2 Kinase Activities
(§2) JAK activity was determined in the reaction buffer 50 mM HEPES, 0.01% Brij35, 10 mM MgCl2, 2 mM DTT by a microfluidic assay. The phosphorylation of a FAM labeled peptide substrate was monitored in the Caliper EZ Reader II (Perkin Elmer). The assay condition for each batch of enzyme (Carna Biosciences) was optimized to obtain 10% conversion rate of peptide substrate.
(§3) The test compounds were dissolved in DMSO to a stock concentration of 10 mM. Three-fold serially diluted compounds with top concentration of 5 µM were pre-incubated with JAK1, JAK2 or TYK2 for 10 min at ambient temperature. The final DMSO concentration of assay mixture was 1%. […] The reaction was stopped by adding 50 mM EDTA.
(§4) And the well without compound but with equivalent DMSO was defined as no inhibition. The percent inhibition was calculated by the following formula: % Inhibition = (Conversion%_max−Conversion%_sample)/(Conversion%_max−Conversion%_min) × 100 [formula] wherein • Conversion%_ max = the conversion rate in the positive well without addition of compound • Conversion%_ sample = the conversion rate of test compounds • Conversion%_ min = the conversion rate in the well without addition of enzyme
(§5) The dose-response (percent inhibition) curve was plotted and IC50 values were determined by GraphPad software. The IC50 values of tested compounds were list in Table 3. Table 3. JAK1, JAK2 and TYK2 IC50 Values of Illustrative Compounds

Another series concerns the target T2, JAK1 (Homo sapiens, UniProt P23458).
T2 construct: purchased Carna Biosciences
As to the kind of experiment: JAK1 kinase activity, microfluidic assay (Caliper EZ Reader II, FAM labeled peptide substrate). Type of series: biochemical. Particulars: JAK1 10 nM, 1 mM ATP. The protocol:
as §1, §2, §3, §4, §5

Where [2] appears, read: read-out: Efflux Ratio: Papp(B-A)/Papp(A-B).

Like-named read-outs stand apart in the source and are kept apart here.

T2 sequence (P23458 875-1153 limits assumed): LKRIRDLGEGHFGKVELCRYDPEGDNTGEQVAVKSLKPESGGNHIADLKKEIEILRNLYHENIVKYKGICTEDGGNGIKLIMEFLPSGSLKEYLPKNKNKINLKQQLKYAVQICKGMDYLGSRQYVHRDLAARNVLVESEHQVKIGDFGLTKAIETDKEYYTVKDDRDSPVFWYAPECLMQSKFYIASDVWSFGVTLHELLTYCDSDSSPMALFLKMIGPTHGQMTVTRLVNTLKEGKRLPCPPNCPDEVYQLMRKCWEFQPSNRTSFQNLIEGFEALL

Take `COC(=O)c1cnc(NC(=O)[C@@H]2C[C@@H]2F)cc1Nc1nn(C)c2ccc(C(O)C(F)(F)F)c(OC)c12` (single isomer, unassigned) [Example 122A, Methyl 6-((1S,2S)-2-fluorocyclopropane-1-carboxamido)-4-((4-methoxy-1-methyl-5-((S*)-2,2,2-trifluoro-1-hydroxyethyl)-1H-indazol-3-yl)amino) nicotinate]: the Papp A→B (in general, how fast a substance crosses the layer from the apical side) at 1.5 h, 10 µM in “Caco-2 cell permeability” (90 mins, A to B) stood at 27.4 ×10⁻⁶ cm/s. For the same molecule, the Papp B→A (in general, how fast a substance crosses the layer from the basolateral side) at 1.5 h, 10 µM in “Caco-2 cell permeability” (90 mins, B to A) is 45.3 ×10⁻⁶ cm/s. For the same molecule, the efflux ratio at 1.5 h, 10 µM in the series “Caco-2 cell permeability” (setting [2]) worked out at 1.65. In addition, the IC50 (commonly the concentration that inhibits the measured activity by half) with IFNa pSTAT1 came to 0.239 nM. The half-life at 1 µM in series [1] (pH 7.4) amounted to 1.49 h. The microsomal CLint at 1 µM in series [1] was determined as 15.5 µL/min/mg.
Take `[2H]C([2H])([2H])NC(=O)c1cnc(NC(=O)C2CC2)cc1Nc1cnn2ccc([C@H](O)C(F)(F)F)c(OC)c12` [Example 7A, (S)-6-(cyclopropanecarboxamido)-4-((4-methoxy-5-(2,2,2-trifluoro-1-hydroxyethyl)pyrazolo[1,5-a]pyridin-3-yl)amino)-N-(methyl-d3)nicotinamide]: the results for the IC50 in the series with IFNa pSTAT1, at TYK2 and at JAK1 were 1.04 nM, above 20000 nM and above 20000 nM, respectively. Further, the microsomal CLint at 1 µM in series [1] (pH 7.4) was found to be 15.6 µL/min/mg. In addition, in series [1] (pH 7.4), the half-life at 1 µM worked out at 1.48 h.
As to `COC(=O)c1cnc(NC(=O)C2CC2)cc1Nc1nn(C)c2ccc([C@H](OC)C(F)(F)F)c(OC)c12` [Example 45B, Methyl (S)-6-(cyclopropanecarboxamido)-4-((4-methoxy-1-methyl-5-(2,2,2-trifluoro-1-methoxyethyl)-1H-indazol-3-yl)amino)nicotinate], the Papp A→B at 90 min, 10 µM in the series “Caco-2 cell permeability” (90 mins, A to B) stood at 7.27 ×10⁻⁶ cm/s. Also, the Papp B→A at 90 min, 10 µM in “Caco-2 cell permeability” (90 mins, B to A) stood at 5.65 ×10⁻⁶ cm/s. In “Caco-2 cell permeability” (setting [2]), the efflux ratio at 90 min, 10 µM amounted to 0.78. In addition, the IC50 in the series on IFNa pSTAT1 stood at 4.8 nM. In addition, in series [1] (pH 7.4), the microsomal CLint at 1 µM worked out at 18.4 µL/min/mg and the half-life at 1 µM is 1.26 h.
In the series “Caco-2 cell permeability” (90 mins, A to B), `COC(=O)c1cnc(NC(=O)C2CC2)cc1Nc1nn(C)c2ccc([C@H](O)C(F)(F)F)c(OC)c12` [Example 48A, Methyl (S)-6-(cyclopropanecarboxamido)-4-((4-methoxy-1-methyl-5-(2,2,2-trifluoro-1-hydroxyethyl)-1H-indazol-3-yl)amino)nicotinate] had a Papp A→B at 90 min, 10 µM of 29.9 ×10⁻⁶ cm/s. This molecule also returned a Papp B→A at 90 min, 10 µM in the series “Caco-2 cell permeability” (90 mins, B to A) of 29 ×10⁻⁶ cm/s. For the same molecule, the efflux ratio at 90 min, 10 µM in “Caco-2 cell permeability” (setting [2]) stood at 0.97. In addition, the IC50 is 1.03 nM in the series with IFNa pSTAT1, above 5000 nM against TYK2 and above 5000 nM against JAK1.
`[2H]C([2H])([2H])NC(=O)c1cnc(NC(=O)C2CC2)cc1Nc1nn(C)c2ccc([C@H](O)C(F)(F)F)c(OC)c12` [Example 49A, (S)-6-(cyclopropanecarboxamido)-4-((4-methoxy-1-methyl-5-(2,2,2-trifluoro-1-hydroxyethyl)-1H-indazol-3-yl)amino)-N-(methyl-d3)nicotinamide] yielded a Papp A→B at 90 min, 10 µM in “Caco-2 cell permeability” (90 mins, A to B) of 1.32 ×10⁻⁶ cm/s. For the same molecule, the Papp B→A at 90 min, 10 µM in the series “Caco-2 cell permeability” (90 mins, B to A) turned out to be 66.6 ×10⁻⁶ cm/s. Further, the efflux ratio at 90 min, 10 µM in the series “Caco-2 cell permeability” (setting [2]) was 50.3. Moreover, the IC50 in the series with IFNa pSTAT1 was 0.084 nM; at TYK2, above 5000 nM; against JAK1, above 5000 nM. Besides, the microsomal CLint at 1 µM in series [1] (pH 7.4) turned out to be 19.3 µL/min/mg. Moreover, the half-life at 1 µM in series [1] (pH 7.4) worked out at 1.19 h.
In the case of `[2H]C([2H])([2H])O[C@@H](c1ccc2c(c(Nc3cc(NC(=O)C4CC4)ncc3C(=O)OC)nn2C)c1OC)C(F)(F)F` [Example 50B, Methyl (S)-6-(cyclopropanecarboxamido)-4-((4-methoxy-1-methyl-5-(2,2,2-trifluoro-1-(methoxy-d3)ethyl)-1H-indazol-3-yl)amino)nicotinate], the IC50 in the series on IFNa pSTAT1 is 9.3 nM; against TYK2 it was above 5000 nM; against JAK1 it was above 5000 nM. For the same molecule, the microsomal CLint at 1 µM in series [1] (pH 7.4) worked out at 10.9 µL/min/mg. The half-life at 1 µM in series [1] (pH 7.4) worked out at 2.11 h.

For the origin of these results see EP4813463A2, “TYK2 INHIBITORS AND COMPOSITIONS AND METHODS THEREOF” (Lynk Pharmaceuticals Co. Ltd., priority 2023, dated 2024).
